Source: US10954276B2, “Enzyme-based protein separation and enrichment from soy meal, wheat meal, and other protein-rich materials derived from plant seeds, fruits and other biomass” (THE UNIVERSITY OF AKRON, priority 2012, dated 2021)
≈ marks a conversion by molar mass, not a printed value.

What was measured:
[1] = system: bacterial growth; experiment: Preservatives against bacterial growth during soybean meal enzyme hydrolysis (pH profile); type: cell-based; conditions: preservative 2 g/L, 50° C., initial pH 4.8
Protocol: Systems that were considered in this section are identified on Table 16. All the systems contain 10 g of soybean meal. The enzyme hydrolysis was performed in 250 ml Erlenmeyer flasks which were agitated in orbital shaker at 250 rpm and at 50° C.
For control system, only water was added (no enzyme was added). For non-sterilized system, 10 g of soybean meal was mixed with 4 ml of enzyme broth and about 70 ml DI water. In the case of liquid autoclave system, 10 g of soybean meal was mixed with about 40 ml DI water and was autoclaved for 15 min. After autoclaving, an additional 30 ml of DI water (sterile) and 4 ml of enzyme broth were added. For vacuum autoclave systems, 10 g of soybean meal was autoclaved dry under vacuum cycle in the autoclave with no water for 15 and 45 min, respectively. After the autoclave cycle, 4 ml of enzyme broth and an additional 30 ml of DI water (sterile) was added. In case the sodium benzoate and sodium nitrite systems, 10 g of soybean meal was mixed with 2 g/L of either sodium benzoate or sodium nitrite, enzyme broth and DI water. There was no autoclaving or heating step used in these preservatives systems. The activity of the enzymes in the broth used for these experiments is shown on Table 17. The pH of all of the systems was adjusted to 4.8. Samples were taken periodically for the measurement of reducing sugars.

[2] = system: bacterial growth present as spores in the soy flour; experiment: Sodium benzoate concentration to inhibit bacterial growth in soy flour hydrolysis; type: cell-based; conditions: soy flour enzyme hydrolysis
Protocol: Sodium benzoate (Na.B) was used to inhibit the bacterial growth present as spores in the soy flour that was being used for enzyme hydrolysis enrichment of the soy proteins. Different sodium benzoate concentrations were studied to determine the best concentration of sodium benzoate to inhibit bacterial growth. It was determined that Na.B level of 2 g/L was effective. The hydrolysate byproduct of enzyme hydrolysis of the soy flour having different sugars was intended to be used for arabitol production using Debaryomyces hansenii. In order for this enzyme hydrolysate to be suitable for arabitol production, however, the sodium benzoate must be removed. Accordingly, the maximum concentration that could remain in the hydrolysate that is not inhibitory for D. hansenii growth was determined by this MIC of Na.B test with D. hansenii.

[3] = system: another strain of Debaryomyces hansenii; conditions: cited from earlier work
[4] = system: Debaryomyces hansenii; experiment: MIC study of benzoic acid for the growth of Debaryomyces hansenii; type: cell-based
Protocol: D. hansenii was inoculated first in a pre-culture medium with the following medium composition (g/L): Glucose 10, Peptone 5, Malt extract 3 and yeast extract 3. A pre-culture was performed in a 250 ml Erlenmeyer flask with 50 ml culture volume in an orbital shaker at 250 rpm and at a temperature of 30° C. After 36 hours, 5% inoculum is transferred into systems with the different benzoic acid concentrations shown in Table 11 and the medium composition shown in Table 12, each system in a 250 ml Erlenmeyer flask with a 50 ml working volume. These flasks were placed in an orbital shaker at 250 rpm and a temperature of 30° C. Samples were taken every 24 h for 3 days and the pH and cell concentrations were measured and recorded.
Cell growth was measured as optical density (OD) by measuring the absorbance of the washed cells at 610 nm with UV-vis spectrophotometer. A known amount of sample was centrifuged at 8000 rpm for 10 min and the supernatant was separated and saved for further analysis. Cell pellet was washed with DI water and centrifuge again under same conditions. Cell pellet was dispersed in water and the absorbance was measured at 610 nm.

SMILES | bacterial growth judged from pH profile [1] | level effective to inhibit bacterial growth [2] | MIC concentration [3] | MIC ([4]; Debaryomyces hansenii, read-out: MIC against the growth of D. hansenii) | Specific growth rate (μ), ([4]; benzoic acid 0.01 g/L) | effect on D. hansenii growth ([4]; benzoic acid 0.01 g/L) | Specific growth rate (μ), ([4]; benzoic acid 0.025 g/L) | Specific growth rate (μ), ([4]; benzoic acid 0.05 g/L) | Specific growth rate (μ), ([4]; benzoic acid 0.10 g/L) | Specific growth rate (μ), ([4]; benzoic acid 0.25 g/L) | cell growth measured as OD ([4]; benzoic acid 0.25 g/L)
O=NO [sodium nitrite] | absence of bacterial growth |  |  |  |  |  |  |  |  |  | 
O=C([O-])c1ccccc1.[Na+] [sodium benzoate, Sodium benzoate] | absence of bacterial growth | 2 g/L |  |  |  |  |  |  |  |  | 
O=C(O)c1ccccc1 [Benzoic acid] |  |  | 400 to 500 mg/L | 250 mg/L (≈ 2050 µM) | 0.089 h⁻¹ | very little inhibitory effect | 0.082 h⁻¹ | 0.079 h⁻¹ | 0.075 h⁻¹ | 0.022 h⁻¹ | almost no cell growth
